ChEMBL document CHEMBL1909046, “DrugMatrix in vitro pharmacology data”

How the values were obtained:
[1] = biological target: T1, Nitric oxide synthase, inducible (Mus musculus, UniProt P29477); design: species or system Escherichia coli;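 further: inhibition of iNOS enzyme activity measured with L-arginine as substrate; in other assays of this panel Not Active means under 50% inhibition at 10 µM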
T1 sequence (P29477 whole entry): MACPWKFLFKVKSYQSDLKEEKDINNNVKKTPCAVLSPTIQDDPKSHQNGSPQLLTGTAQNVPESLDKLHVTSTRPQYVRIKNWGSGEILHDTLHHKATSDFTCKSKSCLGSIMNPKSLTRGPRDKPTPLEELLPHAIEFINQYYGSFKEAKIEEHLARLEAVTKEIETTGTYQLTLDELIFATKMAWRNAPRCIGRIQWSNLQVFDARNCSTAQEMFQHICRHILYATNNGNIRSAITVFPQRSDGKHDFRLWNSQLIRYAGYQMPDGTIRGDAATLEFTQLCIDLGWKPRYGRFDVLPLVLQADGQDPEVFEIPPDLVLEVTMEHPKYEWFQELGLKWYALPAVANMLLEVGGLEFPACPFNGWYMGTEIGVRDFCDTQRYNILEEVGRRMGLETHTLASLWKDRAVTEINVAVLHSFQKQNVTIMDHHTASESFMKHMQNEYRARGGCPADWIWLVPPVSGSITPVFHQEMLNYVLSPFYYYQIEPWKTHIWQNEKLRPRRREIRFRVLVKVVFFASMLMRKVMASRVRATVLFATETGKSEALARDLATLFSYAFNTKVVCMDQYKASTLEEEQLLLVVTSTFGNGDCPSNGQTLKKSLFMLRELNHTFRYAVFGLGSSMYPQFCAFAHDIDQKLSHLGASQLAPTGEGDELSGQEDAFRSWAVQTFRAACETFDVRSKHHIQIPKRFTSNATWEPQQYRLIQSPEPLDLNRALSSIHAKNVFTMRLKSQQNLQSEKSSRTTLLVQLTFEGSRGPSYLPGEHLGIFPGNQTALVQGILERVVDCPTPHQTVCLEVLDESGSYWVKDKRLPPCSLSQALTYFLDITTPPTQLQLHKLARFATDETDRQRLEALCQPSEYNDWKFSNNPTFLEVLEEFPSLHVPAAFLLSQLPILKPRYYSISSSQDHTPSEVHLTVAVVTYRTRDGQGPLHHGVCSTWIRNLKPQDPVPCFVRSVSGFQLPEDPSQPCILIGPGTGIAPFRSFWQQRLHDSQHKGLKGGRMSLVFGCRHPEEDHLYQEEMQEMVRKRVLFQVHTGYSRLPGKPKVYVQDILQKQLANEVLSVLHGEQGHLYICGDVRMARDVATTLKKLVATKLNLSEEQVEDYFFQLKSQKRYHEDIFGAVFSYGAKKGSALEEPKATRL

Cytochrome P450 2D6 = Cytochrome P450 2D6 (Homo sapiens, UniProt P10635); settings: bti-tn-5b1-4; further: in other assays of this panel Not Active means under 50% inhibition at 10 µM
[2] = biological target: Epidermal growth factor receptor (Homo sapiens, UniProt P00533); assay: DRUGMATRIX: Protein Tyrosine Kinase, EGF Receptor enzyme inhibition (substrate: Poly(Glu:Tyr)); assay type: cell-based, Insect cells; settings: insect cells; Not Active = under 50% inhibition at 10 µM
[3] = biological target: Tyrosine-protein kinase Fyn (Homo sapiens, UniProt P06241); assay: biochemical; assay type: cell-based, Insect cells; settings: insect cells;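 further: enzymatic inhibition of Fyn kinase activity measured with Poly(Glu:Tyr) as the phosphorylation substrate; in other assays of this panel Not Active means under 50% inhibition at 10 µM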
[4] = biological target: Protein kinase C alpha type (Homo sapiens, UniProt P17252); assay type: cell-based; settings: sf9;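 further: inhibition of PKCalpha kinase activity measured in an enzyme assay with histone as the phosphorylation substrate; in other assays of this panel Not Active means under 50% inhibition at 10 µM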
[5] = biological target: Protein phosphatase 3 catalytic subunit alpha (Homo sapiens, UniProt Q08209); design: species or system Escherichia coli
[6] = biological target: Beta-2 adrenergic receptor (Homo sapiens, UniProt P07550); assay: DRUGMATRIX: Adrenergic beta2 radioligand binding (ligand: [3H] CGP-12177); assay type: cell membranes, CHO, Membrane; settings: cho; Not Active = under 50% inhibition at 10 µM
Cytochrome P450 2A6 = biological target: T2, Cytochrome P450 2A6 (Homo sapiens, UniProt P11509); settings: bti-tn-5b1-4; further: in other assays of this panel Not Active means under 50% inhibition at 10 µM
T2 sequence (P11509 whole entry): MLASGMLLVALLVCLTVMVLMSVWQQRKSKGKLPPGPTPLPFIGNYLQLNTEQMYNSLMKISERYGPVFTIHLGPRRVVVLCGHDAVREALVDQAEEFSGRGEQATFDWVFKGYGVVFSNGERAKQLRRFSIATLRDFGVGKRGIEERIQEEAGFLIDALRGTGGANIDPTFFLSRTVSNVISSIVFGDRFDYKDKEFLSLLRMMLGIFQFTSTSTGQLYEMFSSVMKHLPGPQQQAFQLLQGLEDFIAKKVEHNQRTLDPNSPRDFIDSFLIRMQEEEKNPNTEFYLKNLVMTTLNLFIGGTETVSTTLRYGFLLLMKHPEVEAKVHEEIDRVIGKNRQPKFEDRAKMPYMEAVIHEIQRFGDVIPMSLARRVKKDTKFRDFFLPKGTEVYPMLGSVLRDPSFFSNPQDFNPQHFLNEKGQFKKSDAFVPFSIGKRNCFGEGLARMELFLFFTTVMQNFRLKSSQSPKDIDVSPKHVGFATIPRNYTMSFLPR

Chain of Cytochrome P450 2D6 (P10635 whole entry): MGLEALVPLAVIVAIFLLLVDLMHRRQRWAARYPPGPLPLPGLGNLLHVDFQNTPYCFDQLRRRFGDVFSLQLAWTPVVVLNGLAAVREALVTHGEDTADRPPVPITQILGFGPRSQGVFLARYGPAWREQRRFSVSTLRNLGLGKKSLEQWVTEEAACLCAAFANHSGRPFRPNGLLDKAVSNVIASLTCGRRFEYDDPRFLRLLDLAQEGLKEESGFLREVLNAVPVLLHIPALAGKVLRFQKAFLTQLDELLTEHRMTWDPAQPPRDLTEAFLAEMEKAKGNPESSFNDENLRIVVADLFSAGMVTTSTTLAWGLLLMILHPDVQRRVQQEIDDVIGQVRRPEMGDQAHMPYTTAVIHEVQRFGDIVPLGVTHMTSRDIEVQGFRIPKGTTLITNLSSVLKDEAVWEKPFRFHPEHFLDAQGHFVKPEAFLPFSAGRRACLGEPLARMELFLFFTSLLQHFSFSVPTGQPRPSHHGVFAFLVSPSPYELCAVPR
Chain of Tyrosine-protein kinase Fyn (P06241 whole entry): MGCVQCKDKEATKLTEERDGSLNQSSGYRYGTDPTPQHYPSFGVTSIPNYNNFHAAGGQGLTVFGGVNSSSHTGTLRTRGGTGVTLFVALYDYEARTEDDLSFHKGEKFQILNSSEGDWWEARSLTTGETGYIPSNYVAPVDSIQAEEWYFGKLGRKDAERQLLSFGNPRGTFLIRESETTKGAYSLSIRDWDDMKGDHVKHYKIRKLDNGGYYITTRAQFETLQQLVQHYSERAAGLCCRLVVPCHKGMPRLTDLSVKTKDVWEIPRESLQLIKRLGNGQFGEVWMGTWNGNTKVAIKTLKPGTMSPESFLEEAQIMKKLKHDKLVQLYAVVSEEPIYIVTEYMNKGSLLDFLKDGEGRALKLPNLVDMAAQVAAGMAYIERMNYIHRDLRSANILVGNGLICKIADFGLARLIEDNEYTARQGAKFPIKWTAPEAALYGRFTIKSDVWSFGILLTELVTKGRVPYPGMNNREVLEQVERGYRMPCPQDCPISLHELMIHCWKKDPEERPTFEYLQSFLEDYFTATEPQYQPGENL

Cc1c(N(C)CS(=O)(=O)[O-])c(=O)n(-c2ccccc2)n1C.[Na+] [DIPYRONE SODIUM]
Not Active: IC50 [1] | IC50 (Cytochrome P450 2D6) | Ki (Cytochrome P450 2D6) | IC50 [2] | IC50 [3] | IC50 [4] | IC50 [5] | IC50 [6] | IC50 (Cytochrome P450 2A6) | Ki (Cytochrome P450 2A6)

CO[C@H]1[C@@H](O)[C@H](N)[C@@H](O[C@H]2O[C@H]([C@H](C)N)CC[C@H]2N)[C@H](O)[C@@H]1N(C)C(=O)CN [ASTROMICIN]
Not Active: IC50 [1] | IC50 (Cytochrome P450 2D6) | Ki (Cytochrome P450 2D6) | IC50 [2] | IC50 [3] | IC50 [4] | IC50 [5] | IC50 [6] | IC50 (Cytochrome P450 2A6) | Ki (Cytochrome P450 2A6)

CCn1cc(C(=O)O)c(=O)c2cc(F)c(N3CCNCC3)nc21 [ENOXACIN]
Not Active: IC50 [1] | IC50 (Cytochrome P450 2D6) | Ki (Cytochrome P450 2D6) | IC50 [2] | IC50 [3] | IC50 [4] | IC50 [5] | IC50 [6] | IC50 (Cytochrome P450 2A6) | Ki (Cytochrome P450 2A6)

CCC(=O)O[C@H]1[C@H](O[C@@H]2[C@@H](C)[C@H](O[C@H]3C[C@@](C)(OC)[C@@H](O)[C@H](C)O3)[C@@H](C)C(=O)O[C@H](CC)[C@@](C)(O)[C@H](O)[C@@H](C)C(=O)[C@H](C)C[C@@]2(C)O)O[C@H](C)C[C@@H]1N(C)C [ERYTHROMYCIN PROPIONATE]
Not Active: IC50 [1] | IC50 (Cytochrome P450 2D6) | Ki (Cytochrome P450 2D6) | IC50 [2] | IC50 [3] | IC50 [4] | IC50 [5] | IC50 [6] | IC50 (Cytochrome P450 2A6) | Ki (Cytochrome P450 2A6)

COBALT(II) ACETYLACETONATE
Not Active: IC50 [1] | Ki [1] | IC50 (Cytochrome P450 2D6) | Ki (Cytochrome P450 2D6) | IC50 [2] | Ki [2] | IC50 [3] | Ki [3] | IC50 [4] | Ki [4] | IC50 [5] | Ki [5] | IC50 [6] | Ki [6] | IC50 (Cytochrome P450 2A6) | Ki (Cytochrome P450 2A6)

O=C(O)Cc1ccc(-c2ccccc2)cc1 [FELBINAC]
Not Active: IC50 [1] | IC50 (Cytochrome P450 2D6) | Ki (Cytochrome P450 2D6) | IC50 [2] | IC50 [3] | IC50 [4] | IC50 [5] | IC50 [6] | IC50 (Cytochrome P450 2A6) | Ki (Cytochrome P450 2A6)

NC[C@H]1O[C@H](O[C@H]2[C@H](O)[C@@H](O[C@H]3O[C@H](CO)[C@@H](O)[C@H](N)[C@H]3O)[C@H](N)C[C@@H]2N)[C@H](O)[C@@H](O)[C@@H]1O [KANAMYCIN]
Not Active: IC50 [1] | IC50 (Cytochrome P450 2D6) | Ki (Cytochrome P450 2D6) | IC50 [2] | IC50 [3] | IC50 [4] | IC50 [5] | IC50 [6] | IC50 (Cytochrome P450 2A6) | Ki (Cytochrome P450 2A6)

N=C(N)N/N=C/c1c(Cl)cccc1Cl [GUANABENZ]
Not Active: IC50 [1] | IC50 (Cytochrome P450 2D6) | Ki (Cytochrome P450 2D6) | IC50 [2] | IC50 [3] | IC50 [4] | IC50 [5] | IC50 [6] | IC50 (Cytochrome P450 2A6) | Ki (Cytochrome P450 2A6)

C[C@]12CCC(=O)C=C1CC[C@@H]1[C@@H]2[C@@H](O)C[C@@]2(C)[C@H]1CC[C@]2(O)C(=O)CO [HYDROCORTISONE]
Not Active: IC50 [1] | IC50 (Cytochrome P450 2D6) | Ki (Cytochrome P450 2D6) | IC50 [2] | IC50 [3] | IC50 [4] | IC50 [5] | IC50 [6] | IC50 (Cytochrome P450 2A6) | Ki (Cytochrome P450 2A6)

Nc1nc(N)nc(NC2CC2)n1 [CYROMAZINE]
Not Active: IC50 [1] | IC50 (Cytochrome P450 2D6) | Ki (Cytochrome P450 2D6) | IC50 [2] | IC50 [3] | IC50 [4] | IC50 [5] | IC50 [6] | IC50 (Cytochrome P450 2A6) | Ki (Cytochrome P450 2A6)
